Results published in patent US5155031A, “Use of pervanadate as an inhibitor of phosphotyrosine phosphatase” (priority 1990, dated 1992).
“Also recorded” adds a separate entry of the source. Where two headings read alike, the source gives them in different places.

Legend:
[1] = tested on: alkaline phosphatase; assay: alkaline phosphatase catalyzed dephosphorylation of the lectin-purified insulin receptor; format: biochemical
Protocol: To do so, lectin-purified insulin receptor (6.0 fmol of insulin binding) was preincubated with 10^-7 M insulin for 60 min at 4° C. Phosphorylation was initiated by addition of [γ^-32 P]ATP, and the insulin receptor was immunoprecipitated by incubating with anti-insulin receptor antibody (140 μg of protein) for 4h at 4° C. followed by incubation with protein A-SEPHAROSE * beads for 1 h at 4° C. The immunoprecipitate was washed twice with 50 mM HEPES buffer, pH 7.6, containing 0.1% TRITON X-100 * detergent and 0.1% SDS and once with the above buffer without SDS. After being washed, the immunoprecipitate was incubated with or without the indicated concentrations of vanadate, H2 O2, or pervanadate in the presence or absence of a 15 units.mL solution of alkaline phosphatase for 60 min at 4° C. with vigorous shaking. This sample was washed twice with 50 mM HEPES buffer, pH 7.6, containing 0.1% TRITON X-100 * detergent and subjected to SDS-PAGE followed by radioautography as shown in FIG. 1. Densitometric scanning of the radioautographs was done with a ZEINER * soft laser scanning densitometer (Model SL-504-XL).

[2] = tested on: rat hepatocyte phosphotyrosine phosphatase; assay: insulin receptor tyrosine dephosphorylation catalyzed by crude phosphotyrosine phosphatase from rat liver microsomes; format: biochemical
Protocol: Since vanadate and pervanadate may have different specificities for various phosphoprotein phosphatases, their inhibitory effects were separated tested on insulin receptor tyrosine dephosphorylation catalyzed by a crude preparation of phosphotyrosine phosphatase activity extracted from rat liver microsomes.
The samples were processed as in example 1, except that after being washed, the immunoprecipitate was incubated with or without 10^-4 M vanadate, 10^-4 M H2 O2 or 10^-4 m pervanadate in the presence or absence of an equal volume, 50 μL, of rat hepatocyte phosphotyrosine phosphatase (as described above) for 20 min at 30° C. with vigorous shaking.

[3] = molecular target: T1, insulin receptor (Rattus norvegicus, UniProt P15127); assay: Insulin Receptor Autophosphorylation Assay; format: biochemical; settings: 10^-3 to 10^-7 M, 15 min, 37° C.; WGA-purified adipocyte insulin receptors
T1 construct: Insulin receptors were solubilized and partially purified by WGA chromatography; endogenous in cells; host or cells: isolated rat adipocytes
Protocol: To elucidate further the mechanism of action of pervanadate, this compound was added in vitro to solubilized WGA-purified adipocyte insulin receptors.
Isolated rat adipocytes were incubated with different concentrations of pervanadate (10^-3 to 10^-7 M), 10 ng/mL (1.7×10^-9 M) insulin, or no additions for 15 min at 37° C. Insulin receptors were solubilized and partially purified by WGA chromatography. […] An aliquot of insulin receptor (5-10 fmol of insulin binding) was used in the autophosphorylation assay as described below, in the presence or absence of in vitro insulin, followed by SDS-PAGE and radioautography.
The Insulin Receptor Autophosphorylation Assay proceeded as follows: lectin-purified insulin receptor (5-10 fmol of insulin binding) was incubated with or without 10^-7 M insulin in a 50 mM HEPES buffer containing 8 mM MnCl2, 10 mM MgCl2, 270 μM dithiothreitol, and 10 μg/mL bovine serum albumin for 1 h at 4° C., in a total volume of 90 μL. The phosphorylation reaction was initiated by the addition of 10 μL of diluted [γ^-32 P]ATP (10 Ci/mmol) to a final concentration of 50 μM, and the reaction mixture was further incubated for 15 min at 4° C. […]

[4] = stability of the pervanadate solution; format: physicochemical; settings: after catalase 200 μg/mL to remove residual H2 O2
Protocol: The vanadate solution used in the examples presented below was prepared as described in Kadota et al. supra, to avoid changes in pH and the generation of colored decavanadate (orange-yellow) or vanadyl ion, VO^2+ (blue). The solution of pervanadate was prepared by mixing vanadate or vanadate containing substance with H2 O2 or a peroxide-containing substance (10^-3 M unless otherwise indicated) for 15 min at 22° C. This was followed by the addition of catalase, 200 μg/mL, to remove residual H2 O2. […] The concentration of pervanadate generated is denoted by the vanadate concentration added to the mixture.

[5] = tested on: insulin receptor; settings: adipocytes, cited from earlier work
[6] = tested on: tyrosine kinase; settings: cited from earlier work
[7] = tested on: tyrosine phosphatases; settings: cited from earlier work
[8] = increasing concentrations, 15 units/mL alkaline phosphatase, 60 min, 4° C., SDS-PAGE, radioautography

T1 sequence (P15127 764-1383 limits assumed): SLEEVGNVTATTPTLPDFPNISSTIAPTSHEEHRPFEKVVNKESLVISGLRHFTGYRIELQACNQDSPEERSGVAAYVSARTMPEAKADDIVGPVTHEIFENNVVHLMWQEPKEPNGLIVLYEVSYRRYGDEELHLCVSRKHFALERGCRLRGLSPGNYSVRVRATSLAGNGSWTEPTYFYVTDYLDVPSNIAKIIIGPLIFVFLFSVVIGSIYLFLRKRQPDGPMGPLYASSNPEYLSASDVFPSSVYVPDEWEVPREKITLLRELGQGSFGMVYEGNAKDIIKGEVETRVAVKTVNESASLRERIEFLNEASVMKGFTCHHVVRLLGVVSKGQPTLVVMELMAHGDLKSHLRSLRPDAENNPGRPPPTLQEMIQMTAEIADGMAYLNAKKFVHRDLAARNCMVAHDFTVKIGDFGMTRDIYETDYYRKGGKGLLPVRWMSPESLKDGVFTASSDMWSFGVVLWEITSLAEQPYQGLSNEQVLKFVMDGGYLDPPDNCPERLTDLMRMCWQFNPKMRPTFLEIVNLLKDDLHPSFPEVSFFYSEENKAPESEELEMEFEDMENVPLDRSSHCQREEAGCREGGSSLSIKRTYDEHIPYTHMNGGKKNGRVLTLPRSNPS
T1 sequence (P15127 27-759 partner limits assumed): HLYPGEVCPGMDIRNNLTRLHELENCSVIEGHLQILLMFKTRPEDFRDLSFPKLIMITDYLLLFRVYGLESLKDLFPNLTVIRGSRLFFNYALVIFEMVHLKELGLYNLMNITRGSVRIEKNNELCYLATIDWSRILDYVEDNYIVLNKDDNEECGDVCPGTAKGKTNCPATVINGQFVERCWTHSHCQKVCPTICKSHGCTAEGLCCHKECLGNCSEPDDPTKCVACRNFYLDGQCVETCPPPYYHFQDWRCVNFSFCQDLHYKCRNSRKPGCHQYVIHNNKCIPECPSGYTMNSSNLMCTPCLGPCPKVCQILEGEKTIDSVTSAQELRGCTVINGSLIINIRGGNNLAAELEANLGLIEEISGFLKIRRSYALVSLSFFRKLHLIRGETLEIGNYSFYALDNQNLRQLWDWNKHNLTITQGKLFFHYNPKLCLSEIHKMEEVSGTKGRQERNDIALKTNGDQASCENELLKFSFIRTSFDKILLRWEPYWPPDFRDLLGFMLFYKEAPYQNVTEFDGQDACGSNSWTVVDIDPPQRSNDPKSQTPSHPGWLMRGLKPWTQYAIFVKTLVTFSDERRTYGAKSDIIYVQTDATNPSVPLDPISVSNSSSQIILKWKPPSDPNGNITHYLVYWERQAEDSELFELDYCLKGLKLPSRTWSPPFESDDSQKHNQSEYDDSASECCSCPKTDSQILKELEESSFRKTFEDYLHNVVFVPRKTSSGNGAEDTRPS

Compound	inhibition of alkaline phosphatase-catalyzed dephosphorylation of 32P-labeled insulin receptor β-subunit ([1]; 10^-3 M alone)	inhibition of insulin receptor tyrosine dephosphorylation catalyzed by rat hepatocyte phosphotyrosine phosphatase [2]	inhibition of alkaline phosphatase-catalyzed dephosphorylation of 32P-labeled insulin receptor β-subunit [1, 8]	inhibition of insulin receptor tyrosine dephosphorylation catalyzed by rat hepatocyte phosphotyrosine phosphatase ([2]; 10^-4 M, 20 min, 30° C.)	stimulation of insulin receptor autophosphorylation [3]	time the peroxidized form of vanadate is stable without further addition of H2 O2 [4]	in situ tyrosine phosphorylation of the insulin receptor [5]	activation of the insulin receptor kinase ([5]; time course versus insulin)	stimulation of autophosphorylation of exogenous tyrosine kinase activity [6]	inhibition of tyrosine phosphatases [7]
OO [H2 O2, hydrogen peroxide, reference compound]	without effect	without effect								
pervanadate			much less than that by vanadate alone; also recorded: does not inhibit	powerfully inhibited tyrosine dephosphorylation; also recorded: potent inhibitor; also recorded: more efficacious than vanadate	did not significantly stimulate autophosphorylation	2 h	maximal effects similar to that of insulin	activates the insulin receptor kinase but with a slower time course than insulin	does not either stimulate	
[O]=[V]([O-])([O-])[O-] [vanadate]			inhibited the dephosphorylation of the ^32 P-labeled insulin receptor in a dose- dependent manner	inhibited dephosphorylation but with less efficacy						inhibit tyrosine phosphatases
